In data set [1] the target is T1, C5aR (Homo sapiens, UniProt P21730).
T1 construct: measurements with isolated membranes from polymorphonuclear neutrophilic granulocytes (PMN membranes); host or cells: isolated PMN membranes (endogenous receptor)
T1 sequence (P21730 1-350): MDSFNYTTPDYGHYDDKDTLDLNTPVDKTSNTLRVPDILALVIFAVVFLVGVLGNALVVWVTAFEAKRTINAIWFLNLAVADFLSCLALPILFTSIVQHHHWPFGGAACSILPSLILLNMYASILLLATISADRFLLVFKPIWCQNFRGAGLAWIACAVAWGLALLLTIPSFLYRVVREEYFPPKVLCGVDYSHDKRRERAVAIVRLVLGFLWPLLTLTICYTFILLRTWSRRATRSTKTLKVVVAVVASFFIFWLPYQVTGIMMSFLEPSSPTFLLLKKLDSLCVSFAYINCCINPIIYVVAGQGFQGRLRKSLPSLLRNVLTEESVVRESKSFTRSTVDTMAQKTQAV
The conditions noted are these: compound numbers of WO 03/033528; read-out: IC50 as a measure for affinity, WO 03/033528; cited from earlier work.

The target of data set [2] is T1, C5aR. The conditions noted are these: compound numbers of WO 03/033528; read-out: antagonistic activity, WO 03/033528; cited from earlier work.
The nature of data set [3]: Solubility determination for selected C5aR-antagonists. Format: physicochemical. The settings on record: for Solubility in 20 mM HEPES pH 7.4 (% of 200 μM): 20 mM HEPES pH 7.4, 24 h at RT. The protocol: Solubility Determination for Selected C5aR-Antagonists
[…] The undissolved part was removed by centrifugation after 24 h. The UV-absorption of the supernatant was measured and compared to a reference solution of the compound in 60% MeOH.

Data set [4] addresses T2, human C5aR(CD88) (Homo sapiens, UniProt P21730).
T2 construct: expressed in transfected cells; host or cells: rat basophilic leukemia cells (RBL)
T2 sequence (P21730 1-350): T1 sequence (P21730 1-350)
The data set is described as follows: Determination of EC50-values in an enzyme release assay (agonistic activity). The settings on record: for agonistic activity (in words): cellular assay, up to a concentration of at least 1430 nM. Format: cell-based. The protocol:
The assay procedure was described by Kohl (Kohl 1997 The Anaphylatoxins. In: Dodds, A. W., Sim, R. B. (Eds.), Complement: A Practical Approach. Oxford, pp. 135-163). Basophilic leukemia cells from rats (RBL), which express the human C5aR(CD88), were cultivated in DMEM with 10% fetal bovine serum, 100 U/ml penicillin, 100 μg/ml streptomycin and 2 mM glutamine (all components of the media from Biochrome, Berlin) to confluence at 37° C. and 10% CO2. The following specifications refer to single cell culture flask having a surface of 75 cm^2. Medium was decanted from cells. Cells were washed with 10 ml PBS (Dulbecco's PBS, Biochrome) and subsequently overlayed with 3 ml Cell Dissociation Solution (CDS, Sigma). Cells were incubated for 1 min at room temperature. Subsequently, CDS was removed and the cells were further incubated for 10-15 min at 37° C. for dissociation. In the assay, 20 μl of the solution containing the compound to be tested were used. This solution should not contain more than 2.8% DMSO. For the dilution process, the compounds were diluted in ⅓ or ½ steps. To 20 μl compound solution 75 μl of the RBL-cells were added, which were treated as follows: after dissociation cells were detached and warmed at 37° C. in 10 ml HAG-CM (20 mM HEPES; 125 mM NaCl, 5 mM KCl, 1 mM CaCl2, 1 mM MgCl2, 0,5 mM Glucose, 0,25% BSA. HEPES-preparation: 2.3 g/l HEPES-salt +2.66 g/l HEPES acid). Cells were counted and centrifuged (200×g, 10 min). The cell pellet was resuspended in preheated HAG-CM (i.e. Hepes-buffer NaCl-glucose-solution with calcium and magnesium), and the cell density was adjusted to 2×10^6 cells/ml. The cells were incubated at 37° C. for 5 min. Per ml cell suspension 27 μl of a cytochalasin B-solution were added (100 μg/ml in DMSO, Sigma). The cells were incubated for further 3 min at 37° C. 75 μl of the cell suspension were added to 20 μl compound solution leading to a volume of 95 μl per well. After incubation of the cells for 10 min at 37° C. 10 μl hrC5a (10.5 nM in HAG-CM, Sigma) per well were added. The cells were incubated for additional 5 min at 37° C. The mtp was then transferred to ice and centrifuged for 3 min at 4° C. with 1200×g. 75 μl of the supernatant were added to 100 μl substrate-solution (2.7 mg/ml p-nitrophenyl-N-acetyl-β-D-glucosaminide (Sigma) in 42.5 mM Na-acetate pH 4.5). The mtp was incubated for further 60 min at 37° C. 75 μl 0.4 M glycine pH 10.4 were added per well. The mtp was transferred into a reader and the absorption at 405 nm was measured. IC50-values were obtained following the equation; y=((A-D)/(1+(x/C)^B))+D.
Determination of EC50-Values in an Enzyme Release Assay
The determination of EC50-values was performed according to the procedure given in example II, with the exception that 30 μl of the test compound need to be mixed with 75 μl of the cell suspension mentioned in example 11. Neither preincubation nor addition of C5a for stimulation of enzyme release is needed.

The target in data set [5] is T2, human C5aR(CD88). The data set is described as follows: Determination of the IC50 value in an enzyme release assay (functional assay, antagonistic activity). Type of data set: cell-based. The settings on record: for inhibitory activity (in words): functional assay of example 11, noteworthy = IC50 less than 200 nM.
A short description of data set [6]: Measurement of the AB-permeability in a TC-7 based assay-system. Type of data set: in vitro ADME. The settings on record: human. The protocol: Measurement of the AB-Permeability in a TC-7 Based Assay-System The screening compounds are diluted to a 50 μM solution in HBSS-MES (5 mM, pH 6.5) from 10 mM stock solution in 100% DMSO. ^14C-mannitol (approx. 4 μM) is added to the sample. The solution is centrifuged and the supernatant is added to the apical side of the TC-7 cell culture (passage 15, in 24 well transwell plate) to a final DMSO-concentration of 1%. HBSS-HEPES (5 mM, pH 7.4) is placed at the basolateral side. The cells were incubated for 120 min at 37° C.

The test system of a further data set is BALB/c mice. Put plainly: Model of immune complex mediated peritonitis (reverse passive Arthus reaction). Type of data set: in vivo. The conditions noted are these: 1 mg/kg i.v. 15 min before Arthus reaction, lavage after 6 h, FIG. 1. The source says: Efficacy of compound 149 in a model of immune complex mediated peritonitis
Immune complex mediated peritonitis resembles the pathological conditions of immune complex related diseases like vasculitis, nephritis, arthritis, and farmer's disease. The associated animal model was described by Heller et al. (1999 Journal of Immunology 163: 985-994) and takes advantage of the pro-inflammatory effects of immune complexes formed after i.v. administration of the antigen and i.p. administration of the antibody.
BALB/c mice (6-8 weeks old) were treated i.v. with compound 149 (1 mg/kg bodyweight in 200 μl vehicle) 15 min before the initiation of the reverse passive Arthus reaction. Arthus reaction was induced through the administration of OVA (20 mg/kg i.v. in 200 μl PBS) and polyclonal anti-OVA Ab (rabbit; 800 μg/Maus i.p). After 6 h a peritoenal lavage with 2 ml PBS 0.1% BSA was done. The collected PE-cells were stained with DIFF-Quick. At least 20 visual fields (100× magnification) were analyzed for the presence of neutrophils.

A further data set concerns Wistar rats. The data set is described as follows: Model of C5a induced neutropenia. Format: in vivo. The settings on record: i.v. infusion 10 min before 2 μg/kg hr C5a i.v., FIG. 2. The source says:
Efficacy of compound 149 in a model of C5a induced neutropenia
C5a induced neutropenia is a model for shock induced diseases (e.g. septic shock), where the systemic role of C5a (neutropenia, blood pressure decrease) plays an important role. The reason for the decrease of the neutrophils in the circulation is their binding to the vessel walls due to the C5a stimulus. These processes of neutrophil recruitment are playing an important role in many other diseases like reperfusion injury. This model was also described by Short et al. (1999 British Journal of Pharmacology 125: 551-554).
Female Wistar rats were treated i.p. with ketamine (80 mg/kg) and xylazine (12 mg/kg). A catheter was introduced in the jugular vein and the animals were subjected to the following procedure:
1. Rats were treated with vehicle or compounds according to the invention like compound 149 via i.v. infusion. A blood sample was taken one minute before compound treatment. 2. 10 min after compound infusion rats were treated with 2 μg/kg hr C5a i.v. (2 μg/kg over 1 min). […]
White blood cell count was measured with a haematology-cell-counter. […]
The differential cell count was determined as the sum of neutrophils, eosinophils, basophils, lymphocytes and monocytes of 100 cells. Then the percentage of the neutrophils in relation to all white blood cells was calculated.

A further data set relates to human PMNs. The conditions noted are these: cellular myeloperoxidase release assay with human PMNs; read-out: IC50 (antagonistic activity), WO 99/00406; cited from earlier work.
[7] abbreviates: antagonistic activity, IC50 group in enzyme release assay, RBL cells expressing human C5aR(CD88), read-out: activity (group).

Where two headings read alike, the source gives them in different places. Positions of bridges follow the written chain, without caps; N, C: chain ends. Non-standard residues stand in square brackets, D forms with d. Residues, ends and D or L forms follow the SMILES beside them. Bta = N[C@@H](Cc1csc2ccccc12)C(=O)O; Hyp = O=C(O)[C@@H]1C[C@@H](O)CN1; d(hLeu) = CC(C)CC[C@@H](N)C(=O)O; dCha = N[C@H](CC1CCCCC1)C(=O)O; Orn = NCCC[C@H](N)C(=O)O

As a reminder, the EC50 is the concentration needed to bring the measured effect to its halfway point. As for `CC(=O)N[C@@H](Cc1ccccc1)C(=O)N[C@H]1CCCNC(=O)[C@H](Cc2ccccc2)NC(=O)[C@H](Cc2c[nH]c3ccccc23)NC(=O)[C@@H](CC2CCCCC2)NC(=O)[C@@H]2CCCN2C1=O` [Compound 1, Ac-Phe-[Orn-Pro-cha-Trp-Phe]] (Ac-F[Orn]P[dCha]WF; lactam 2-C), the IC50 on C5aR [1] was 450 nM; at C5aR [2] it was 28 nM; at human C5aR(CD88) [5] (setting [7]), 20 to 50 nM; on human C5aR(CD88) [5] (functional assay of example 11, values in text, read-out: IC50), 23 nM. Besides, the “Solubility in 20 mM HEPES pH 7.4 (% of 200 μM)” value in [3] is 8 % of 200 μM. In data set [3], the “solubility in aqueous HEPES buffer (pH 7.4)” value is 8%. Besides, on human C5aR(CD88) [4] (agonistic activity, no C5a added, read-out: EC50), the EC50 is > 1430 nM. At human C5aR(CD88) [4], the “agonistic activity (in words)” value was “pure antagonists”. The “inhibitory activity (in words)” value is reported as “without significant loss of activity” against human C5aR(CD88) [5] and “noteworthy inhibitory activity” on human C5aR(CD88) [5] (listed as Ac-Phe-[Orn-Pro-cha-Trp-Phe]).
As usually defined, the Papp A→B is the apparent permeability from the apical to the basolateral side of a cell layer. In turn, `CC(=O)N[C@@H](Cc1ccccc1)C(=O)N[C@H]1CCCNC(=O)[C@H](Cc2ccccc2)NC(=O)[C@H](Cc2c[nH]c3ccccc23)NC(=O)[C@@H](CC2CCCCC2)NC(=O)[C@@H]2C[C@@H](O)CN2C1=O` [Compound 2, Ac-Phe-[Orn-Hyp-cha-Trp-Phe]] (Ac-F[Orn][Hyp][dCha]WF; lactam 2-C) came in with a Papp A→B at 120 min, 50 μM in data set [6] (Caco-2, TC-7 cells, 50 μM, apical pH 6.5, basolateral pH 7.4, 120 min at 37° C.) of 14.2 ×10⁻⁶ cm/s. Moreover, the Papp A→B at 120 min, 50 μM in [6] (Caco-2, values in text) is 14.3 ×10⁻⁶ cm/s. In data set [3], the “Solubility in 20 mM HEPES pH 7.4 (% of 200 μM)” value was 13 % of 200 μM and the “solubility in aqueous HEPES buffer (pH 7.4)” value amounted to 13%. Also, on human C5aR(CD88) [4], the EC50 is > 1430 nM and the “agonistic activity (in words)” value is reported as “pure antagonists”. Moreover, at human C5aR(CD88) [5] (setting [7]), the IC50 lay within 20 to 50 nM. At human C5aR(CD88) [5], the “inhibitory activity (in words)” value is on record as “noteworthy inhibitory activity”.
Turning to `CC(=O)N[C@@H](Cc1ccccc1)C(=O)N[C@@H](CCCN)C(=O)N1CCC[C@H]1C(=O)N[C@H](CCC(C)C)C(=O)N[C@@H](Cc1csc2ccccc12)C(=O)N[C@@H](Cc1ccccc1)C(N)=O` [Compound 149, Ac-Phe-Orn-Pro-hle-Bta-Phe-NH2] (Ac-F[Orn]P[d(hLeu)][Bta]F-NH2), in the data set on BALB/c mice, the “influx of neutrophils / pro-inflammatory cells into the peritoneum” value is “reduction of the influx of pro-inflammatory cells into the peritoneum”. Moreover, the “C5a-induced neutropenia (percentage of neutrophils over time)” value in the data set on Wistar rats was “reduces the C5a-induced neutropenia remarkable”. Also, the “agonistic activity (in words)” value at human C5aR(CD88) [4] was “pure antagonists”. Also, the IC50 on human C5aR(CD88) [5] (setting [7]) was in the range of 10 to 20 nM. Also, at human C5aR(CD88) [5], the “inhibitory activity (in words)” value is given as “noteworthy inhibitory activity”.
As for `CC(C)NCC(O)COc1cccc2ccccc12` (stereo not drawn) [Propanolol, reference compound], the apparent permeability from apical to basolateral (Papp A→B) at 120 min, 50 μM in data set [6] (Caco-2, values in text) stood at 31.1 ×10⁻⁶ cm/s.
Take `CC(=O)N[C@@H](Cc1ccccc1)C(=O)N[C@H]1CCCNC(=O)[C@H](CCCNC(=N)N)NC(=O)[C@H](Cc2c[nH]c3ccccc23)NC(=O)[C@@H](C)NC(=O)[C@@H]2CCCN2C1=O` [compound 47]: the IC50 on C5aR [1] is 24000 nM; on human C5aR(CD88) [5] (setting [7]), > 2000 nM.
Turning to Me-Phe-Lys-Pro-cha-Trp-arg, the IC50 with human PMNs was 85 nM.
